Assays:
Type in all cases: physicochemical
Solubility in water = test: Solubility in water
Solubility in methanol = test: Solubility in methanol
[1] = Storage temperature (thermal stability)
pH stability = conditions: for pH stability: pH range in which stable
pKa = test: pKa

Row | Solubility in water (Solubility in water) | Solubility in methanol (Solubility in methanol) | Storage temperature [1] | pH stability (pH stability) | pKa (pKa) | pH stability: alkaline hydrolysis above pH (pH stability; pH above which alkaline hydrolysis occurs) | SMILES
1 | Very good; 60-70% (w/v) | 10% | up to 95 °C | 2-12 | ~4.6 | – | O=C(O)[C@H](CO)O[C@@H]1O[C@H](CO)[C@@H](O)[C@H](O)[C@@H]1O
2 | – | – | – | Alkaline hydrolysis; | – | >pH 8-9 | NC(=O)[C@H](CO)O[C@@H]1O[C@H](CO)[C@@H](O)[C@H](O)[C@@H]1O [Firoin-A, β-mannosylglyceramide]
